# Biological target: T1, human TREM2 (Homo sapiens, UniProt Q9NZC2)
# T1 construct: expressed in transfected cells; host or cells: HEK293T (HEK293T-hTREM2 cells)
# Assay: Cellular phosphorylation of Syk (AlphaLisa) in HEK293T-hTREM2 cells, TREM2 agonist potency
# Assay type: cell-based
# Details: HEK293 cells expressing human TREM2 and DAP12, pSyk AlphaLisa
# Protocol: In Vitro Measurement of Triggering Receptor Expressed on Myeloid Cells 2 Activity Using Cellular Phosphorylation of Spleen Tyrosine Kinase (“Syk”) Assays
# Measurement of TREM2 agonist potency was done using a HEK cell line expressing human TREM2 and DAP12 (HEK293T-hTREM2 cells). Binding of small molecules to, and activation of, TREM2 increases the phosphorylation of Syk. The resultant levels of Syk phosphorylation are measured using a commercial AlphaLisa reagent kit. To perform the assay, HEK-hTREM2 cells were plated at 14,000 cells per well in a 384 well plate, in 25 μL of complete growth media and incubated at 37° C., 5% CO2 for 20-24 hours.
# Prior to the assay, test compounds were diluted in the 384 well plates in assay buffer and allowed to equilibrate for 30 minutes. Growth media was removed from cell plates by inversion on blotting paper, and 25 μL of test articles in assay buffer was added to cells. Cells were incubated for 45 minutes at room temperature. After 45 minutes, assay buffer was removed and 10 μL of lysis buffer was added. Plates were shaken for 20 minutes at 350 RPM at room temperature. After complete lysis, AlphaLisa reagents were added to the lysate, and fluourescence intensity was measured using a Perkin Elmer Envision plate reader. Intensities were used to generate a standard curve, and % activation was calculated. Curve fitting was performed using Prism v9 software, log(agonist) vs response—variable slope (four parameters), and EC50s were calculated from the curve fit.
# The results presented in Table D have been generated with the in vitro assay described above. This assay may be used to test any of the compounds described herein to assess and characterize a compound's ability to act as an agonist of TREM2.
# T1 sequence (Q9NZC2 19-230): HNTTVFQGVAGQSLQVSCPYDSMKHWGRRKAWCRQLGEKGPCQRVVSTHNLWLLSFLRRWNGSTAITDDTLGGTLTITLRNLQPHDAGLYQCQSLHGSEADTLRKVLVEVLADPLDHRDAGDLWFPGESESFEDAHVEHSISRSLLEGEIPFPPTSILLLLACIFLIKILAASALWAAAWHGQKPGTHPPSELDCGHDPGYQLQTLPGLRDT
# T1 sequence (O43914 22-113 partner): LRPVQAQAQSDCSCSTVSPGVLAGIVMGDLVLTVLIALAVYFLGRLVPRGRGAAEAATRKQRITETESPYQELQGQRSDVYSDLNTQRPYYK
SMILES,EC50 (Table D-2),EC50 (Table D)
"Cc1cc2c(-c3ccc(Cl)cc3)nn(-c3ccnc(C4CC(OCc5ccccc5)C4)c3)c(=O)c2cc1C (stereo not drawn) [I-109, 2-(2-(3-(benzyloxy)cyclobutyl)pyridin-4-yl)-4-(4-chlorophenyl)-6,7-dimethylphthalazin-1 (2H)-one]",0.5 to 3 µM,–
"Cc1cc2c(-c3ccc(Cl)cc3)cn(-c3ccc(OC(F)(F)F)cc3)c(=O)c2nc1C [I-122, 5-(4-chlorophenyl)-2,3-dimethyl-7-(4-(trifluoromethoxy)phenyl)-1,7-naphthyridin-8 (7H)-one]",0.5 to 3 µM,–
"Cc1nc2c(=O)n(CC(=O)c3ccc(Cl)cc3)nc(-c3ccc(Cl)cc3)c2s1 [compound 24, 7-(4-chlorophenyl)-5-(2-(4-chlorophenyl)-2-oxoethyl)-2-methylthiazolo[4,5-d]pyridazin-4(5H)-one]",–,3 to 100 µM
"Cc1cc2c(-c3ccc(Cl)cc3)nn(-c3ccc(C4CC4)nc3)c(=O)c2cc1C [compound 17, 4-(4-chlorophenyl)-2-(6-cyclopropylpyridin-3-yl)-6,7-dimethylphthalazin-1(2H)-one]",–,3 to 100 µM
"Nc1nc2c(=O)n(CCc3ccccc3)nc(-c3ccc(Cl)cc3)c2s1 [compound 33, 2-amino-7-(4-chlorophenyl)-5-phenethylthiazolo[4,5-d]pyridazin-4(5H)-one]",–,3 to 100 µM
"Cc1nc2c(=O)n(-c3ccc(C(=O)NC(C)C)cc3)nc(-c3ccc(Cl)cc3)c2s1 [compound 38, 4-(7-(4-chlorophenyl)-2-methyl-4-oxothiazolo[4,5-d]pyridazin-5(4H)-yl)-N-isopropylbenzamide]",–,3 to 100 µM
"Cc1cc2c(-c3ccc(Cl)cc3)nn(-c3ccnc(Nc4cnn(C5CC5)c4)c3)c(=O)c2nc1C [I-120, 5-(4-chlorophenyl)-7-(2-((1-cyclopropyl-1H-pyrazol-4-yl)amino)pyridin-4-yl)-2,3-dimethylpyrido[2,3-d]pyridazin-8 (7H)-one]",0.05 to 0.5 µM,–
"COc1ccc(-c2nn(CCc3ccccc3)c(=O)c3nc(C)sc23)cc1 [compound 40, 7-(4-methoxyphenyl)-2-methyl-5-phenethylthiazolo[4,5-d]pyridazin-4(5H)-one]",–,3 to 100 µM
"Cc1cc2c(-c3ccc(F)cc3)nn(-c3ccc(OC(F)(F)F)cc3)c(=O)c2nc1C [I-121, 5-(4-fluorophenyl)-2,3-dimethyl-7-(4-(trifluoromethoxy)phenyl)pyrido[2,3-d]pyridazin-8 (7H)-one]",3 to 100 µM,–
"Cc1cc2c(-c3ccc(Cl)cc3)nn(-c3ccnc(OC4CN(C(=O)OC(C)(C)C)C4)c3)c(=O)c2cc1C [compound 20, tert-butyl 3-((4-(4-(4-chlorophenyl)-6,7-dimethyl-1-oxophthalazin-2(1H)-yl)pyridin-2-yl)oxy)azetidine-1-carboxylate]",–,0.5 to 3 µM
"Cc1nc2c(-c3ccc(C(F)(F)F)cc3F)cn([C@H]3CCO[C@@H](c4cnn(C5CC5)c4)C3)c(=O)c2nc1C [I-123, 6-[(2R,4S)-2-(1-cyclopropyl-1H-pyrazol-4-yl)tetrahydro-2H-pyran-4-yl]-8-[2-fluoro-4-(trifluoromethyl)phenyl]-2,3-dimethylpyrido[3,4-b]pyrazin-5 (6H)-one]",0.5 to 3 µM,–
"Cc1cc2c(-c3ccc(Cl)cc3)nn(-c3ccc(OC(F)(F)F)cc3)c(=O)c2cc1C [compound 10, 4-(4-chlorophenyl)-6,7-dimethyl-2-(4-(trifluoromethoxy)phenyl)phthalazin-1(2H)-one]",–,0.5 to 3 µM
"Cc1cc2c(-c3ccc(Cl)cc3)nn(-c3ccc4c(c3)OCO4)c(=O)c2cc1C [compound 19, 2-(benzo[d][1,3]dioxol-5-yl)-4-(4-chlorophenyl)-6,7-dimethylphthalazin-1(2H)-one]",–,3 to 100 µM
"Cc1nc2c(=O)n(CC(C)c3ccc(Cl)cc3)nc(-c3ccc(Cl)cc3)c2s1 (stereo not drawn) [compound 31, 7-(4-chlorophenyl)-5-(2-(4-chlorophenyl)propyl)-2-methylthiazolo[4,5-d]pyridazin-4(5H)-one]",–,3 to 100 µM
"Cc1nc2c(=O)n(C(C)c3ccc(Cl)cc3)nc(-c3ccc(Cl)cc3)c2s1 (stereo not drawn) [compound 27, 7-(4-chlorophenyl)-5-(1-(4-chlorophenyl)ethyl)-2-methylthiazolo[4,5-d]pyridazin-4(5H)-one]",–,3 to 100 µM

# Source: patent publication US20260152484A1, “HETEROCYCLIC COMPOUNDS AS TRIGGERING RECEPTOR EXPRESSED ON MYELOID CELLS 2 AGONISTS” (Vigil Neuroscience, Inc., priority 2021, published 2026)
